Experimental findings from patent publication US20140205537A1, “LRRK2 INHIBITORS” (ZENOBIA THERAPEUTICS, INC., priority 2011, published 2014) are described below.

The target of this experiment is G2019S LRRK2 (Homo sapiens, UniProt Q5S007, G2019S). The experiment in a line: DiscoveRx KINOMEscan binding constant (Kd). Also noted: purchased DiscoveRx (KINOMEscan service); host or cells: E. coli BL21-derived host (T7 phage) or HEK-293. The protocol: Compounds of formulas (II), (I), (I-A), (I-B), (I-C), (I-D), (I-D-1), (I-D-2), (I-E), (I-F), (I-G), (I-H), (I-I), (I-I-1), (I-I-2), (I-J), (I-K), (I-L), (I-M), (I-N), (I-Z-1), (I-Z-2), (I-Z-2-a), (I-Z-2-b), (I-Z-2-c), (I-Z-2-d), (I-Z-3-a), (I-Z-3-b), (I-Z-3-c), or (I-Z-3-d) were tested using DiscoveRx's KINOMEscan™ technology to measure a binding constant (Kd) to wild type and G2019S LRRK2. Kinase-tagged T7 phage strains were prepared in an E. coli host derived from the BL21 strain. E. coli were grown to log-phase and infected with T7 phage and incubated with shaking at 32° C. until lysis. The lysates were centrifuged and filtered to remove cell debris. The remaining kinases were produced in HEK-293 cells and subsequently tagged with DNA for qPCR detection. Streptavidin-coated magnetic beads were treated with biotinylated small molecule ligands for 30 minutes at room temperature to generate affinity resins for kinase assays. The liganded beads were blocked with excess biotin and washed with blocking buffer (SeaBlock (Pierce), 1% BSA, 0.05% Tween 20, 1 mM DTT) to remove unbound ligand and to reduce non-specific binding. Binding reactions were assembled by combining kinases, liganded affinity beads, and test compounds in 1× binding buffer (20% SeaBlock, 0.17×PBS, 0.05% Tween 20, 6 mM DTT). All reactions were performed in polystyrene 96-well plates in a final volume of 0.135 ml. The assay plates were incubated at room temperature with shaking for 1 hour and the affinity beads were washed with wash buffer (lx PBS, 0.05% Tween 20). The beads were then re-suspended in elution buffer (lx PBS, 0.05% Tween 20, 0.5 μM non-biotinylated affinity ligand) and incubated at room temperature with shaking for 30 minutes. The kinase concentration in the eluates was measured by qPCR. An 11-point 3-fold serial dilution of each test compound was prepared in 100% DMSO at 100× final test concentration and subsequently diluted to 1× in the assay (final DMSO concentration=[…]). Most Kds were determined using a compound top concentration=30,000 nM.
Sequence of G2019S LRRK2 (Q5S007 whole entry G2019S): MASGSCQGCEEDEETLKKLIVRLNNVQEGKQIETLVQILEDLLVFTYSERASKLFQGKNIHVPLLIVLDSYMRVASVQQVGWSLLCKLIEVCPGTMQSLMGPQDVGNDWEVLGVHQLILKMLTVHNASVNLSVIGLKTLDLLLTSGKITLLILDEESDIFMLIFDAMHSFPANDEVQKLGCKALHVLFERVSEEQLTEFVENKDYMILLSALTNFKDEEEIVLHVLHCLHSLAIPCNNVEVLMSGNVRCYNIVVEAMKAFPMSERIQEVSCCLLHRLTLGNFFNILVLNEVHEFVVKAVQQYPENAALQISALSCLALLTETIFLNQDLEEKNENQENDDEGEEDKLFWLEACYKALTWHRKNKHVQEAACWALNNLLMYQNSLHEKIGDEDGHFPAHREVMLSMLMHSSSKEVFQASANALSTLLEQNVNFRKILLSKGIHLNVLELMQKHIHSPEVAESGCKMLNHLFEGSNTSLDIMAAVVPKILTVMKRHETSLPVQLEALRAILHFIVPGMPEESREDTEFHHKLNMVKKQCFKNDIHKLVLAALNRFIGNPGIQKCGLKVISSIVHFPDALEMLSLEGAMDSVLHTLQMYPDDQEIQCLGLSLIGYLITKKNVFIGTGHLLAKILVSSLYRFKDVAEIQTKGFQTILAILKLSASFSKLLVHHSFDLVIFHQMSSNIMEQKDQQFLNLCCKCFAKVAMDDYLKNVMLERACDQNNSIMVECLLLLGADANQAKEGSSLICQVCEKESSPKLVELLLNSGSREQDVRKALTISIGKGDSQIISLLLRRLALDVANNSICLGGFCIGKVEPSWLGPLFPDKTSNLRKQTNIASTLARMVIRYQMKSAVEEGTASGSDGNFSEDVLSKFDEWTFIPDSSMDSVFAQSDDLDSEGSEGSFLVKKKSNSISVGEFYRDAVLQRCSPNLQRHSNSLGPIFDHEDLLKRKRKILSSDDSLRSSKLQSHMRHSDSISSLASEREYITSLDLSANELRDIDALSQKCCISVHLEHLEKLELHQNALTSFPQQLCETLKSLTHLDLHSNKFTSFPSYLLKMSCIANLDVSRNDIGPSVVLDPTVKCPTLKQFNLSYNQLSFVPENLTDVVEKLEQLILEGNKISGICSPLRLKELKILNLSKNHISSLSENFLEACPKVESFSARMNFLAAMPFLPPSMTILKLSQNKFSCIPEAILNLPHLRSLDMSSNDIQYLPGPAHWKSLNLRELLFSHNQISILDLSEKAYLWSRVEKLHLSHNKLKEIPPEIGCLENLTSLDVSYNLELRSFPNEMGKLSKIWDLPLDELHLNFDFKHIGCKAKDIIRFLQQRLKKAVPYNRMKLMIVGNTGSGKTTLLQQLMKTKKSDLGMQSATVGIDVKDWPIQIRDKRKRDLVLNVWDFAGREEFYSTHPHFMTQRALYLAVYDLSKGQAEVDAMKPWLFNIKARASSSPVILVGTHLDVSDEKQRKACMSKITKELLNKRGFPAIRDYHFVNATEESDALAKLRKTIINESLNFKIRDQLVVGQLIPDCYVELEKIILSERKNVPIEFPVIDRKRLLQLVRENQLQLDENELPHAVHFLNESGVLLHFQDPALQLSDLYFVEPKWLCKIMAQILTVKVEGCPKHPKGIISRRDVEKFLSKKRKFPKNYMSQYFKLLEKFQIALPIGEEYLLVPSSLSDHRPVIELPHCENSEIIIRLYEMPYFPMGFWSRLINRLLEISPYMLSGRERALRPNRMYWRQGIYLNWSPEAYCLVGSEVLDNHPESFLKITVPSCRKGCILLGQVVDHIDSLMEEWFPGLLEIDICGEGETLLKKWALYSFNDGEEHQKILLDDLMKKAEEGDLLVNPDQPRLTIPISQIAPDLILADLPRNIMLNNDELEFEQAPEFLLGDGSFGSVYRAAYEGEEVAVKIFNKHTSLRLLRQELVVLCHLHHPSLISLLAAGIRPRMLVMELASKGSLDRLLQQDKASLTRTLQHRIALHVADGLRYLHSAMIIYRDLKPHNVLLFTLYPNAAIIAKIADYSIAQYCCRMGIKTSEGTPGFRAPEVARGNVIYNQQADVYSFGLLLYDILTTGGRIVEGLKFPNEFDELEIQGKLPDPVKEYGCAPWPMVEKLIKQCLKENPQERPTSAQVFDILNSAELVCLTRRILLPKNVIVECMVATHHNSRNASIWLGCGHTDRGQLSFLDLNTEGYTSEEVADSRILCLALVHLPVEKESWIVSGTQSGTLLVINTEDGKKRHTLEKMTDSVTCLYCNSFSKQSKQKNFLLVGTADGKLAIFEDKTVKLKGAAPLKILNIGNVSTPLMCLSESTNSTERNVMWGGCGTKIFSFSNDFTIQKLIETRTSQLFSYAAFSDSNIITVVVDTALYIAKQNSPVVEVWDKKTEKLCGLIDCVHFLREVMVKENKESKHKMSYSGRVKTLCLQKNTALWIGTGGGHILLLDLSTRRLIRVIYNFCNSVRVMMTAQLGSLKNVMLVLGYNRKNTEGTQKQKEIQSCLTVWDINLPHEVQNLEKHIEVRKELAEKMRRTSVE

Take `CC(C)Oc1cc2c(cc1F)NC(=O)/C2=C\c1cnc(C2CCOCC2)[nH]1` [Compound 41, (3Z)-6-fluoro-5-isopropoxy-3-[(2-tetrahydropyran-4-yl-1H-imidazol-5-yl)methylene]indolin-2-one]: the Kd (numeric value) came to 0.025 µM.
In the case of `CCN1CCN(c2ncc(/C=C3\C(=O)Nc4cc(F)c(OC(C)C)cc43)[nH]2)CC1` [Compound 44, (3Z)-3-[[2-(4-ethylpiperazin-1-yl)-1H-imidazol-5-yl]methylene]-6-fluoro-5-isopropoxy-indolin-2-one], the Kd (numeric value) stood at 0.041 µM.
`O=C1Nc2ccc(O)cc2/C1=C/c1cnc(C2CCOCC2)[nH]1` [Compound 28, (3Z)-5-hydroxy-3-[(2-tetrahydropyran-4-yl-1H-imidazol-5-yl)methylene]indolin-2-one]: the dissociation constant (Kd) (numeric value) is 0.068 µM.
Molecule `CC(C)Oc1ccc2c(c1)/C(=C/c1cnc(N(C)C)[nH]1)C(=O)N2` [Compound 35, (3Z)-3-[[2-(dimethylamino)-1H-imidazol-5-yl]methylene]-5-isopropoxy-indolin-2-one] came in with a Kd (numeric value) of 0.032 µM.
As to `CCc1nnc(/C=C2\C(=O)Nc3ccc(OC)cc32)[nH]1` [Compound 25, (3Z)-3-[(5-ethyl-4H-1,2,4-triazol-3-yl)methylene]-5-methoxy-indolin-2-one], the equilibrium dissociation constant (Kd) by setting is: (class symbol) no less than 1 µM; (numeric value) greater than 30 µM.
Consider `O=C1Nc2ccc(Cl)cc2/C1=C/c1cnc(C2CCOCC2)[nH]1` [Compound 32, (3Z)-5-chloro-3-[(2-tetrahydropyran-4-yl-1H-imidazol-5-yl)methylene]indolin-2-one], for which the dissociation constant (Kd) (numeric value) was 0.059 µM.
`CC(C)Oc1ccc2c(c1)/C(=C/c1cnc(C(C)C)[nH]1)C(=O)N2` [Compound 21, (3Z)-5-isopropoxy-3-[(2-isopropyl-1H-imidazol-5-yl)methylene]indolin-2-one]: binding (numeric value) was put at a Kd of 0.0165 µM.
Take `CC(C)Oc1ccc2c(c1)/C(=C/c1cnc(N3CCOCC3)[nH]1)C(=O)N2` [Compound 27, (3Z)-5-isopropoxy-3-[(2-morpholino-1H-imidazol-5-yl)methylene]indolin-2-one]: under “numeric value”, binding was put at a Kd of 0.0155 µM.
In turn, `CC(C)Oc1ccc2c(c1F)/C(=C/c1cnc(N3CCOCC3)[nH]1)C(=O)N2` [Compound 38, (3Z)-4-fluoro-5-isopropoxy-3-[(2-morpholino-1H-imidazol-5-yl)methylene]indolin-2-one] had a dissociation constant (Kd) (class symbol) of no less than 1 µM.
Regarding `CC(C)Oc1ccc2c(c1)/C(=C/c1cnc(CN3CCOCC3)[nH]1)C(=O)N2` [Compound 23, (3Z)-5-isopropoxy-3-[[2-(morpholinomethyl)-1H-imidazol-5-yl]methylene]indolin-2-one], the affinity (numeric value), expressed as Kd, was 0.42 µM.
With `CC(C)Oc1ccc2c(c1)/C(=C/c1cnc(C3CCN(CCF)CC3)[nH]1)C(=O)N2` [Compound 31, (3Z)-3-[[2-[1-(2-fluoroethyl)-4-piperidyl]-1H-imidazol-5-yl]methylene]-5-isopropoxy-indolin-2-one], the Kd (numeric value) is 0.043 µM.
`CC(C)Oc1cc2c(cc1F)NC(=O)/C2=C\c1cnc(C2CCN(CCF)CC2)[nH]1` [Compound 43, (3Z)-6-fluoro-3-[[2-[1-(2-fluoroethyl)-4-piperidyl]-1H-imidazol-5-yl]methylene]-5-isopropoxy-indolin-2-one]: under “numeric value”, binding was characterised by a dissociation constant (Kd) of 0.034 µM.
Same read-out and setting: the value for `CC(C)Oc1ccc2c(c1)/C(=C/c1nnc(C(C)C)[nH]1)C(=O)N2` [Compound 26, (3Z)-5-isopropoxy-3-[(5-isopropyl-4H-1,2,4-triazol-3-yl)methylene]indolin-2-one] was 12.5 µM; that for `CC(C)Oc1cc2c(cn1)NC(=O)/C2=C\c1cnc(C2CCOCC2)[nH]1` [Compound 45, (3Z)-5-isopropoxy-3-[(2-tetrahydropyran-4-yl-1H-imidazol-5-yl)methylene]-1H-pyrrolo[2,3-c]pyridin-2-one] was 0.26 µM; that for `C/C(=C1/C(=O)Nc2ccc(OC(C)C)cc21)c1cnc(N2CCOCC2)[nH]1` [Compound 40, (3Z)-5-isopropoxy-3-[1-(2-morpholino-1H-imidazol-5-yl)ethylidene]indolin-2-one] was 0.022 µM.
Turning to `CC(C)Oc1cc(F)c2c(c1)/C(=C/c1cnc(N3CCOCC3)[nH]1)C(=O)N2` [Compound 36, (3Z)-7-fluoro-5-isopropoxy-3-[(2-morpholino-1H-imidazol-5-yl)methylene]indolin-2-one], the dissociation constant (Kd) (numeric value) worked out at 0.067 µM.
For the molecule `COc1ccc2c(c1)/C(=C/c1cnc(-c3c(F)cccc3F)[nH]1)C(=O)N2` [Compound 20, (3Z)-3-[[2-(2,6-difluorophenyl)-1H-imidazol-5-yl]methylene]-5-methoxy-indolin-2-one], the Kd (numeric value) turned out to be 0.15 µM.
Same read-out and setting: the value for `CC(C)Oc1ccc2c(n1)/C(=C/c1cnc(C3CCOCC3)[nH]1)C(=O)N2` [Compound 46, (3Z)-5-isopropoxy-3-[(2-tetrahydropyran-4-yl-1H-imidazol-5-yl)methylene]-1H-pyrrolo[3,2-b]pyridin-2-one] was 0.25 µM.
Still for that read-out and setting: with `O=C1Nc2ccc(OCCF)cc2/C1=C/c1cnc(C2CCOCC2)[nH]1` [Compound 34, (3Z)-5-(2-fluoroethoxy)-3-[(2-tetrahydropyran-4-yl-1H-imidazol-5-yl)methylene]indolin-2-one] the figure was 0.0475 µM.
`CC(C)Oc1ccc2c(c1)/C(=C/c1cnc(C3CCOCC3)[nH]1)C(=O)N2` [Compound 30, (3Z)-5-isopropoxy-3-[(2-tetrahydropyran-4-yl-1H-imidazol-5-yl)methylene]indolin-2-one] had a dissociation constant Kd (numeric value) of 0.028 µM.
Same read-out and setting: with `COCCc1ncc(/C=C2\C(=O)Nc3ccc(OC)cc32)[nH]1` [Compound 24, (3Z)-5-methoxy-3-[[2-(2-methoxyethyl)-1H-imidazol-5-yl]methylene]indolin-2-one] the figure was 0.45 µM; with `CCc1ccc2c(c1)/C(=C/c1cnc(C3CCOCC3)[nH]1)C(=O)N2` [Compound 29, (3Z)-5-ethyl-3-[(2-tetrahydropyran-4-yl-1H-imidazol-5-yl)methylene]indolin-2-one], 0.054 µM.
Same read-out and setting: the value for `O=C1Nc2ccc(Cl)cc2/C1=C/c1cnc(C2CCN(CCF)CC2)[nH]1` [Compound 33, (3Z)-5-chloro-3-[[2-[1-(2-fluoroethyl)-4-piperidyl]-1H-imidazol-5-yl]methylene]indolin-2-one] was 0.15 µM; that for `CC(C)Oc1ccc2c(c1)/C(=C/c1ncc(C3CCOCC3)[nH]1)C(=O)N2` [Compound 39, (3Z)-5-isopropoxy-3-[(5-tetrahydropyran-4-yl-1H-imidazol-2-yl)methylene]indolin-2-one] was 0.123 µM.
As for `C/C(=C1/C(=O)Nc2cc(F)c(OC(C)C)cc21)c1cnc(N2CCOCC2)[nH]1` [Compound 42, (3Z)-6-fluoro-5-isopropoxy-3-[1-(2-morpholino-1H-imidazol-5-yl)ethylidene]indolin-2-one], the equilibrium dissociation constant (Kd) (numeric value) was 0.057 µM.
As for `CC(C)Cc1ncc(/C=C2\C(=O)Nc3ccc(OC(C)C)cc32)[nH]1` [Compound 22, (3Z)-3-[(2-isobutyl-1H-imidazol-5-yl)methylene]-5-isopropoxy-indolin-2-one], where the note is “numeric value”, the Kd is 0.0325 µM.
Molecule `CC(C)Oc1cc2c(cc1F)NC(=O)/C2=C\c1cnc(N2CCOCC2)[nH]1` [Compound 37, (3Z)-6-fluoro-5-isopropoxy-3-[(2-morpholino-1H-imidazol-5-yl)methylene]indolin-2-one] registered a dissociation constant Kd (numeric value) of 0.024 µM.

As usually defined, the Kd is the free concentration of one partner at which half of the binding sites on the other are occupied at equilibrium, for simple one-to-one binding. Higher therefore signals a looser complex.
